The source of these data is patent publication EP0430883A2, “Anthelmintical compounds” (CIBA-GEIGY AG, priority 1989, dated 1991).

The subject of experiment [1] is Nematoden wie Haemonchus contortus und Trichostrongylus colubriformis. The experiment in a line: Test on sheep infected with nematodes (worm count at necropsy). The class given is in vivo, Schafe. As to conditions: single dose of 20 mg Wirksubstanz pro kg Körpergewicht, suspension by stomach tube or rumen injection, worms left in the gut counted 7-10 days after treatment vs untreated infected controls. The text has this: 3.1. Versuch an mit Nematoden wie Haemonchus contortus und Trichostrongylus colubriformis infizierten Schafen
Der Wirkstoff wird in Form einer Suspension mit einer Magensonde oder durch Pansen-Injektion Schafen verabreicht, die vorher mit Nematoden wie Haemonchus contortus und Trichostrongylus colubriformis künstlich infiziert wurden. Pro Versuch resp. pro Dosis werden 1 bis 3 Tiere verwendet. Jedes Schaf wird mit nur einer einzigen Dosis behandelt.
Eine erste Evaluierung erfolgt dadurch, dass die Anzahl der vor und nach der Behandlung im Kot der Schafe ausgeschiedenen Wurmeier verglichen wird.
Sieben bis zehn Tage nach der Behandlung werden die Schafe getötet und seziert. Die Auswertung erfolgt durch Auszählung der nach der Behandlung im Darm zurückbleibenden Würmer. Gleichzeitig und gleichartig infizierte aber unbehandelte Schafe dienen als Kontrolle resp. Vergleich.
In diesem Test wird mit Verbindungen der Formeln I und la eine starke Reduzierung des Nematodenbefalls erzielt. So wird beispielsweise beim Einsatz von 20 mg Wirksubstanz pro kg Körpergewicht mit den nachfolgenden Verbindungen eine Reduzierung des Nematodenbefalls von ca. 90 % bewirkt: 1.1, 5.1 und 5.2. Dieses Ergebnis wird bei einzelnen Verbindungen auch noch mit weiter herabgesetzter Dosis, beispielsweise mit 10 mg Wirksubstanz pro kg Körpergewicht oder noch geringeren Mengen an Wirksubstanz, erreicht.

In experiment [2] the test system is Cestoden wie Moniezia benedeni. Nature of the experiment: Test on sheep infected with cestodes (worm count at necropsy). The class given is in vivo, Schafe. As to conditions: single dose of less than 20 mg/kg Körpergewicht, suspension by stomach tube or rumen injection, worms left in the gut counted 7-10 days after treatment vs untreated infected controls. The source says:
3.2. Versuch an mit Cestoden wie Moniezia benedeni infizierten Schafen
Der Wirkstoff wird in Form einer Suspension mit einer Magensonde oder durch Pansen-Injektion Schafen verabreicht, die vorher mit Cestoden wie Moniezia benedeni artifiziell infiziert wurden. Pro Versuch resp. pro Dosis werden 3 Tiere verwendet. Jedes Schaf wird mit nur einer einzigen Dosis behandelt.
Sieben bis zehn Tage nach der Behandlung werden die Schafe getötet und seziert. Die Auswertung erfolgt durch Auszählung der nach der Behandlung im Darm zurückbleibenden Würmer. Gleichzeitig und gleichartig infizierte aber unbehandelte Schafe dienen als Kontrolle resp. Vergleich. In diesem Versuch bewirken Wirkstoffe aus den Tabellen, wie beispielsweise die Verbindungen Nr. 1.1, 5.1 und 5.2. bei Dosen von weniger als 20 mg/kg Körpergewicht eine ca. 90%ige Reduktion des Cestodenbefalls.

For the compound “1,3-Dimethyl-5-[4-(5-oder 7-Chlor-6-fluor-benzthiazol-2-yloxy)-phenylcarbamoyl]-4,6-(1 H,3H,5H)-pyrimidindion [Verbindung 5.2]”, the “Reduzierung des Nematodenbefalls” value in experiment [1] is on record as “ca. 90%”. For the same compound, in experiment [2], the “Reduktion des Cestodenbefalls” value is “ca. 90%”.
For `Cn1c[n+](C)c(=O)c(C(=O)Nc2ccc(Oc3nc4ccc(OC(F)(F)F)cc4s3)cc2)c1[O-]` [Verbindung 1.1, 1,3-Dimethyl-5-[4-(6-trifluormethoxy-benzthiazol-2-yloxy)-phenylcarbamoyl]-4(6)-oxo-6-(4)-oxido-(1H,5H)-pyrimidiniumbetain], the “Reduzierung des Nematodenbefalls” value in experiment [1] is recorded as “ca. 90%”. Further, the “Reduktion des Cestodenbefalls” value in experiment [2] was “ca. 90%”.
`CN1CN(C)C(=O)C(C(=O)Nc2ccc(Oc3nc4ccc(OC(F)(F)F)cc4s3)cc2)C1=O` [Verbindung 5.1, 1,3-Dimethyl-5-[4-(6-trifluormethoxy-benzthiazol-2-yloxy)-phenylcarbamoyl]-4,6-(1 H,3H,5H)-pyrimidindion]: the “Reduzierung des Nematodenbefalls” value in experiment [1] is recorded as “ca. 90%”. For the same compound, in experiment [2], the “Reduktion des Cestodenbefalls” value is on record as “ca. 90%”.
